Data as given in patent US20250195510A1, “NOVEL METHODS” (priority 2022, published 2025).

Columns and labels:
[1] = system: Serum cytokine concentration; test: Serum cytokine protein (Multiplex MSD) after acute restraint stress; assay type: in vivo, mouse; settings: restraint stress 2 h + Luma 3 mg/kg IP
Description: Multiplex Assays. In mouse serum, protein levels of IL-1b, IL-6, IL-10 and TNF-alpha are measured using a V-Plex Meso Scale Discovery (MSD) Multiplex spot assay Mouse Neuroinflammation 1 panel (Meso Scale Diagnostics, Rockville, MD). All samples are run in duplicates or triplicates according to manufacturer instructions and analyzed with MSD Discovery Workbench software (Meso Scale Diagnostics).
Restraint Stress Protocol.
Control mice receive vehicle treatment and are returned to their home cage before sample collection. Protein concentration is measured using the Multiplex MSD assay V-Plex technology, normalized to the control group. Results are expressed in pg/mL.

Sprague-Dawley rats = test: Novelty Suppressed Feeding Test (NSFT); assay type: in vivo, rat; settings: naïve rats, Luma 1 mg/kg IP days 1 and 3, no LPS; control 657.8
Description: Behavioral Evaluation. All behavioral tests are performed in the morning with adult male Sprague-Dawley rats (n=9-11 per group for the experiments with LPS, and n=13-14 per group for the naïve rats).
Novelty Suppressed Feeding Test (NSFT). This test measures consumption of a familiar food in a novel environment, relying on rodents' aversion to eating in a novel environment after a period of food deprivation (Ramaker and Dulawa, “Identifying fast-onset antidepressants using rodent models,” Mol. Psychiatry 22:656-665 (2017)). Rats are food-deprived overnight and placed in an open field (76.5×76.5×40 cm^3) with a small amount of food pellets (6 pellets total). At the time of the test, rats are exposed to the open field for the first time (novelty) and allowed to explore it for a maximum of 15 minutes under red light. The latency for the animal to approach the food pellets and take its first bite is manually scored. A home cage feeding test (HCFT) is performed afterwards to ensure latency measured in NSFT is not a matter of difference in hunger. A home cage food intake analysis evaluated the amount of food eaten (in grams) over a period of 10 minutes following the end of the entire test session.
Basal levels of anxiety are also tested using 2 commonly used tests, NSFT and novelty induced hypophagia (NIH), in the absence of LPS. […]

[2] = system: Hippocampal mRNA expression; test: Hippocampal mRNA (qRT-PCR) after acute restraint stress; assay type: in vivo, mouse; settings: restraint stress 2 h + Luma 3 mg/kg IP; control 0, stressed −0.138
Description: Quantitative Real-Time PCR. […] Heavy phase-lock gel tubes enabled separation of phases following the addition of 400 μL chloroform to the sample and centrifugation at 12,000 rpm for 10 minutes at room temperature. RNA is extracted using Qiagen Rneasy kit (Qiagen, Hilden, Germany). For cDNA synthesis, 2 μg of total RNA is used (SuperScript IV Reverse Transcriptase; ThermoFisher Scientific, Waltham, MA). The purity and concentration of RNA is measured with a Nanodrop spectrophotometer; the optical density (OD) 260/280 and OD 260/230 are within 1.8-2.3. In the hippocampus, 4 key markers of pro- and anti-inflammatory cytokines and chemokines (Il1b: ID Mm00434228_m1, Tnfa: ID Mm00443258_m1, Il6: ID Mm00446190_m1, and Il10: ID Mm01288386_ml; ThermoFisher Scientific) are initially chosen for analysis (n=5-12 per group). […] Mm00840904_m1). […] All mRNAs are measured by qRT-PCR on ABI Prism 7900HT system using TaqMan Gene Expression Assays. […] The results are shown in Table 4B as relative change in mRNA levels for each cytokine gene (Il1b, Il6, Tnfa, Il10) normalized to the control group using the Dct method: Using similar procedures as described above, serum corticosterone levels and hippocampal Cldn5 mRNA expression are measured as well (corticosterone is measured using a commercial ELISA kit).

Q: For `CN1CCN2c3c(cccc31)[C@@H]1CN(CCCC(=O)c3ccc(F)cc3)CC[C@@H]12` [Lumateperone, 4-((6bR,10aS)-3-methyl-2,3,6b,9,10,10a-hexahydro-1H-pyrido[3′,4′: 4,5]pyrrolo[1,2,3-de]quinoxaline-8 (7H)-yl)-1-(4-fluorophenyl)-1-butanone], which “Serum IL-1b concentration” value ([1]; control 0.7, stressed 1.65) is on record?
A: Its value is 0.81 pg/mL.

Q: And the “Serum TNF-alpha concentration” value ([1]; control 6.75, stressed 10.28)?
A: The value was 7.67 pg/mL.

Q: And the “Serum IL-10 concentration” value ([1]; control 17.18, stressed 86.78)?
A: The value was 70.03 pg/mL.

Q: What about the “Serum IL-6 concentration” value ([1]; control 141.3, stressed 627.4) of the same molecule?
A: Its value is 137.7 pg/mL.

Q: What about the “NSFT latency to feed” value (Sprague-Dawley rats) of the same molecule?
A: The value was 507.9 s.

Q: What about the “Hippocampal Cldn5 mRNA expression” value [2] of the same molecule?
A: The value was 0.330.
